Assay results taken from ChEMBL document CHEMBL1151293, “End-Product Regulation of Ergot Alkaloid Formation in Intact Cells and Protoplasts of Claviceps Species, Strain SD 58” (1980).

What was measured:
Claviceps [1] = experiment: Inhibition of alkaloid biosynthesis in intact cells of Claviceps SD 58 assessed as incorporation of L-[methylene-14C] tryptophan at 3 mM; format: functional
Claviceps [2] = experiment: Inhibition of DMAT synthase in Claviceps SD 58 assessed as conversion of 1-14C]dimethylallylpyrophosphate to dimethylallyltryptophan at 3 mM after 5 days; design: scale not given: the % may be the effect or the level left
Claviceps [3] = experiment: Inhibition of alkaloid biosynthesis in Claviceps SD 58 protoplast assessed as incorporation of L-[methylene-14C] tryptophan at 4 mM relative to control; format: functional; design: scale not given: the % may be the effect or the level left
Claviceps [4] = experiment: Inhibition of alkaloid biosynthesis in intact cells of Claviceps SD 58 assessed as incorporation of L-[methylene-14C] tryptophan at 3 mM after 24 hrs relative to control; format: functional

Structure (SMILES): CN1CC(CO)=C[C@@H]2c3cccc4[nH]cc(c34)C[C@H]21 [listing 1 of 3 here]
- inhibition at 3000 µM (Claviceps [1]): 29%

Structure (SMILES): CN1CC(CO)=C[C@@H]2c3cccc4[nH]cc(c34)C[C@H]21 [listing 2 of 3 here]
- Activity (Claviceps [2]): 70%

Structure (SMILES): CC1=C[C@@H]2c3cccc4[nH]cc(c34)C[C@H]2N(C)C1
- Activity (Claviceps [2]): 90%

Structure (SMILES): CN1CC(CO)=C[C@@H]2c3cccc4[nH]cc(c34)C[C@H]21 [listing 3 of 3 here]
- Activity (Claviceps [3]): 50%
- fold change (FC) (Claviceps [4]): 2
